In article PMC2576352, “The V1-V3 region of a brain-derived HIV-1 envelope glycoprotein determines macrophage tropism, low CD4 dependence, increased fusogenicity and altered sensitivity to entry inhibitors” (Retrovirology, 2008):

Assays:
[1] = test system: pseudotypes containing wild-type, chimeric and mutant Env; test: Inhibition of pseudotype infection by entry/fusion inhibitors, Env panel; assay type: cell-based, HIV-1; conditions: all pseudotypes; data not shown
Experimental: To produce Env-pseudotyped, luciferase-reporter viruses, 293T cells were co-transfected using calcium phosphate precipitation (ProFection Mammalian Transfection System, Promega, Madison, WI) with each Env expression vector and with the Env-deficient, pNL4-3-luc^+env^- provirus, developed by N. Landau by introducing a frameshift mutation in the env gene of pNL4-3-luc^+ [87]. Culture supernatants containing the pseudotyped particles were collected 48–72 hours after transfection, clarified by centrifugation, aliquoted and stored at -80°C until use. Pseudotype particles lacking envelope glycoproteins, which are generated by co-transfecting the luciferase HIV-1 pro-viral backbone with an empty expression vector, are used as negative control for all pseudotype infections. Pseudotype stocks were quantitated using a p24^gag antigen capture ELISA (SAIC-National Cancer Institute) and normalized amounts of stocks were used to infect target cells for 5–6 hours at 37°C. At 2–3 days post-infection, the cells were washed with PBS and lysed, and the amount of entry mediated by each Env was measured by detecting luciferase activity (Luciferase Assay System, Promega) in a microplate luminometer (GloMax, Promega), following manufacturer's instructions. Results are obtained as relative light units (RLU) per second. […]
Inhibition curves obtained by plotting the relative infection (expressed as a percent of untreated) versus the concentration of the inhibitor were analyzed by non-linear regression with a sigmoidal dose-response model (variable slopes) using GraphPad Prism software, version 4.02 (GraphPad Software, San Diego, CA); this analysis uses a four parameter logistic equation, Y = Bottom + (Top-Bottom)/( 1+10^((log10IC50−X)⋅Slope) ) where Y is the response, Bottom is 0 and Top is 100, X is the logarithm of the concentration, and Slope is the slope of the curve. […] Fusogenicity data were analyzed by non-linear regression with a one-phase exponential model (using GraphPad Prism) that uses the equation Y=Ymax(1-e^(-kX)), where Ymax is the maximum response and k is the observed rate. […]

[2] = test system: SB chimeric Env (spleen gp120-brain gp41) pseudotype; assay type: cell-based, HIV-1; conditions: HOS-CD4-CCR5 cells, inhibitor + virus 5–6 h at 37°C, luciferase at 2–3 days, non-linear regression, 95% confidence limits in parentheses
Experimental: (§1) To produce Env-pseudotyped, luciferase-reporter viruses, 293T cells were co-transfected using calcium phosphate precipitation (ProFection Mammalian Transfection System, Promega, Madison, WI) with each Env expression vector and with the Env-deficient, pNL4-3-luc^+env^- provirus, developed by N. Landau by introducing a frameshift mutation in the env gene of pNL4-3-luc^+ [87]. Culture supernatants containing the pseudotyped particles were collected 48–72 hours after transfection, clarified by centrifugation, aliquoted and stored at -80°C until use. Pseudotype particles lacking envelope glycoproteins, which are generated by co-transfecting the luciferase HIV-1 pro-viral backbone with an empty expression vector, are used as negative control for all pseudotype infections. Pseudotype stocks were quantitated using a p24^gag antigen capture ELISA (SAIC-National Cancer Institute) and normalized amounts of stocks were used to infect target cells for 5–6 hours at 37°C. At 2–3 days post-infection, the cells were washed with PBS and lysed, and the amount of entry mediated by each Env was measured by detecting luciferase activity (Luciferase Assay System, Promega) in a microplate luminometer (GloMax, Promega), following manufacturer's instructions. Results are obtained as relative light units (RLU) per second. At least three independent experiments were performed for each analysis described below, with 2–8 replicates within each experiment.
(§2) To test for sensitivity to fusion inhibitors, BMS-378806 and HNG-105, the medium from HOS-CD4-CCR5 cells plated in 96-well plates 24 hours before infection, was removed and replaced by fresh medium containing 2× the final concentration of the corresponding inhibitor, and immediately the same volume of viral stocks was added. After 5–6 hours at 37°C, inocula and inhibitors were removed and the cells were incubated for 2–3 days before evaluating the amount of infection.
(§3) Inhibition curves obtained by plotting the relative infection (expressed as a percent of untreated) versus the concentration of the inhibitor were analyzed by non-linear regression with a sigmoidal dose-response model (variable slopes) using GraphPad Prism software, version 4.02 (GraphPad Software, San Diego, CA); this analysis uses a four parameter logistic equation, Y = Bottom + (Top-Bottom)/( 1+10^((log10IC50−X)⋅Slope) ) where Y is the response, Bottom is 0 and Top is 100, X is the logarithm of the concentration, and Slope is the slope of the curve. 50% inhibitory concentrations (IC50) and 95% confidence intervals were estimated from the non-linear regression analysis. Fusogenicity data were analyzed by non-linear regression with a one-phase exponential model (using GraphPad Prism) that uses the equation Y=Ymax(1-e^(-kX)), where Ymax is the maximum response and k is the observed rate. CD4 dependence data were analyzed with SPSS, version 16, using the non-parametric Mann-Whitney test.

DS17 Env pseudotype = assay type: cell-based, HIV-1; conditions: HOS-CD4-CCR5 cells, inhibitor + virus 5–6 h at 37°C, luciferase at 2–3 days, non-linear regression, 95% confidence limits in parentheses
Experimental: as §1, §2, §3

[3] = test system: BS chimeric Env (brain gp120-spleen gp41) pseudotype; assay type: cell-based, HIV-1; conditions: HOS-CD4-CCR5 cells, inhibitor + virus 5–6 h at 37°C, luciferase at 2–3 days, non-linear regression, 95% confidence limits in parentheses
Experimental: as §1, §2, §3

[4] = test system: Bv1v3 chimeric Env pseudotype; assay type: cell-based, HIV-1; conditions: HOS-CD4-CCR5 cells, inhibitor + virus 5–6 h at 37°C, luciferase at 2–3 days, non-linear regression, 95% confidence limits in parentheses
Experimental: as §1, §2, §3

[5] = test system: DS17(N283T) mutant Env pseudotype; assay type: cell-based, HIV-1; conditions: HOS-CD4-CCR5 cells, inhibitor + virus 5–6 h at 37°C, luciferase at 2–3 days, non-linear regression, 95% confidence limits in parentheses
Experimental: as §1, §2, §3

BaL Env pseudotype = assay type: cell-based, HIV-1; conditions: HOS-CD4-CCR5 cells, inhibitor + virus 5–6 h at 37°C, luciferase at 2–3 days, non-linear regression, 95% confidence limits in parentheses
Experimental: as §1, §2, §3

[6] = test system: Bv1v2 chimeric Env pseudotype; assay type: cell-based, HIV-1; conditions: HOS-CD4-CCR5 cells, inhibitor + virus 5–6 h at 37°C, luciferase at 2–3 days, non-linear regression, 95% confidence limits in parentheses
Experimental: as §1, §2, §3

[7] = test system: Spl (spleen-derived) Env pseudotype; assay type: cell-based, HIV-1; conditions: HOS-CD4-CCR5 cells, inhibitor + virus 5–6 h at 37°C, luciferase at 2–3 days, non-linear regression, 95% confidence limits in parentheses
Experimental: as §1, §2, §3

[8] = test system: Br (brain-derived) Env pseudotype; assay type: cell-based, HIV-1; conditions: HOS-CD4-CCR5 cells, inhibitor + virus 5–6 h at 37°C, luciferase at 2–3 days, non-linear regression, 95% confidence limits in parentheses
Experimental: as §1, §2, §3

[9] = test system: Br(N283T) mutant Env pseudotype; assay type: cell-based, HIV-1; conditions: HOS-CD4-CCR5 cells, inhibitor + virus 5–6 h at 37°C, luciferase at 2–3 days, non-linear regression, 95% confidence limits in parentheses
Experimental: as §1, §2, §3

[10] = target: T1, N40, biotinylated HR1-derived peptide (HIV-1, biotin on the amino terminus); test: SPR; Biacore 3000; biotinylated N40 held on a streptavidin SA chip, N40scr surface as reference; T-1249 and T-1249-BR at 81–650 nM passed over at 25 µl/min, 25°C; 25 mM Tris-HCl, 150 mM NaCl, pH 7.4, 8% DMSO; conditions: both partners purified
T1 construct: peptide derived from the heptad repeat 1 (HR1) region of HIV-1 gp41; Held on a streptavidin SA chip by its biotin; also called HR1-based peptide; source: synthetic peptide, custom synthesized
T1 peptide: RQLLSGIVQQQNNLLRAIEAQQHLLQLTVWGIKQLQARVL

## YTNLIYNLIEKSQNQQEMNEQELLKLDTWASLWNWF [T-20-BR, T-20-derived peptide with amino acid changes present in HR2 region of brain-derived env clones]
[1]
  inhibition of pseudotype infection: very similar inhibition

## CC[C@H](C)[C@H](NC(=O)[C@H](CCC(N)=O)NC(=O)[C@H](C)NC(=O)[C@H](CCC(N)=O)NC(=O)[C@H](CCC(=O)O)NC(=O)[C@H](CC(C)C)NC(=O)[C@H](CC(C)C)NC(=O)[C@H](C)NC(=O)[C@@H](NC(=O)[C@@H](NC(=O)[C@H](CCCCN)NC(=O)[C@H](CCC(N)=O)NC(=O)[C@H](CCC(=O)O)NC(=O)[C@H](Cc1c[nH]c2ccccc12)NC(=O)[C@H](CCC(=O)O)NC(=O)[C@H](CCC(N)=O)NC(=O)[C@@H](N)Cc1c[nH]c2ccccc12)[C@@H](C)CC)[C@@H](C)O)C(=O)N[C@@H](CCC(N)=O)C(=O)N[C@@H](CCC(N)=O)C(=O)N[C@@H](CCC(=O)O)C(=O)N[C@@H](CCCCN)C(=O)N[C@@H](CC(N)=O)C(=O)N[C@@H](CCC(=O)O)C(=O)N[C@@H](Cc1ccc(O)cc1)C(=O)N[C@@H](CCC(=O)O)C(=O)N[C@@H](CC(C)C)C(=O)N[C@@H](CCC(N)=O)C(=O)N[C@@H](CCCCN)C(=O)N[C@@H](CC(C)C)C(=O)N[C@@H](CC(=O)O)C(=O)N[C@@H](CCCCN)C(=O)N[C@@H](Cc1c[nH]c2ccccc12)C(=O)N[C@@H](C)C(=O)N[C@@H](CO)C(=O)N[C@@H](CC(C)C)C(=O)N[C@@H](Cc1c[nH]c2ccccc12)C(=O)N[C@@H](CCC(=O)O)C(=O)N[C@@H](Cc1c[nH]c2ccccc12)C(=O)N[C@@H](Cc1ccccc1)C(=O)O [T-1249]
[2]
  IC50: 83 nM
DS17 Env pseudotype
  IC50: 210 nM
[3]
  IC50: 140 nM
[4]
  IC50: 227 nM
[5]
  IC50: 155 nM
BaL Env pseudotype
  IC50: 102 nM
[6]
  IC50: 224 nM
[7]
  IC50: 37 nM
[8]
  IC50: 173 nM
[9]
  IC50: 166 nM

B1: T-1249 (peptide)
peptide: WQEWEQKITALLEQAQIQQEKNEYELQKLDKWASLWEWF
notes: also called parental T-1249; HR2-derived peptide; source: synthetic peptide, custom synthesized (BioSynthesis, Inc.)
[10]
  binding result: binds

B2: T-1249-BR (peptide)
peptide: WQEWEQKITALLEQAQIQQEMNEQELQKLDTWASLWEWF
notes: T-1249 with three amino acid changes (printed in bold) that are present in the HR2 region of the H0002GH brain-derived env clones; also called modified T-1249-BR; HR2-derived peptide; source: synthetic peptide, custom synthesized (BioSynthesis, Inc.)
[10]
  binding result: binds
